Source: patent publication US9326520B2, “Pest repellent comprising geranylacetone” (The University Court of the University of Aberdeen, priority 2006, dated 2016)
Where “and” joins values, the source holds several entries; their conditions need not be identical. Equal values may be shown once. Entries after “also recorded” stand apart in the source; their conditions may differ.

Assays:
Culex quinquefasciatus = test: Laboratory-based repellency test, treated forearm in cage, protective efficacy (PE); format: in vivo; conditions: for Mean % P.E ± S.E: landings over 3 min
Method: (§1) The mosquitoes were laboratory-reared using standard conditions at ICIPE, Duduville. 5-7 day old female mosquitoes that had been starved for 18 h but previously fed on 6% glucose solution were used. Eighteen cages (50×50×50 cm) were used with 25 female mosquitoes in each. Six human volunteers with no or little allergic reaction to bites were selected. Test solutions (0.5 ml in acetone) were applied to a volunteer's forearms and the hand was covered with a glove. Acetone alone (0.5 ml) served as a control on the other arm. The control arm was inserted into a cage and the number of landings were recorded over 3 min. The treated arm was then inserted as above. Repellency data was expressed as protective efficacy (PE) and was calculated by using the formula PE=(% control mean−% test mean/% control mean). The data were transformed and subjected to an ANOVA.
(§2) Each compound was tested at concentrations ranging from 0.0001% to 10%. […]

[1] = system: Aedes aegypti host-seeking female mosquitoes; test: Y-tube olfactometer: response of mosquitoes to hand of attractive volunteer with and without chemical; format: in vivo
Text: FIG. 5. […] (−1=1×10^−1 g μL^−1; −2=1×10^−2 g μL^−1, etc). Back transformed means+95% confidence intervals (calculated for a binomial distribution) from the logistic scale are shown.
A convenient bioassay was established following work by Geier et al. (1999)^17 using a Y-tube olfactometer in which mosquitoes, Ae. aegypti, could “choose” between volatile skin emanations and air alone, the “choice” being expressed as flight activity or relative attraction. Initially, the source of skin emanations was from individual hands of a series of human volunteers.
These compounds (from Sigma Aldrich) were tested individually at different concentrations in the olfactometer against Ae. aegypti. The upwind flight activity, relative attraction and probing activity (feeding) of the mosquitoes to the hand of an attractive volunteer with and without the chemicals was recorded.

Ae. aegypti = conditions: H. D. Douglas et al. J. Med. Entomol. 42(4): 647-651 (2005); cited from earlier work
Anopheles gambiae = test: Laboratory-based repellency test, treated forearm in cage, protective efficacy (PE); format: in vivo; conditions: An. gambiae, landings over 3 min
Method: as §1, §2

C. impunctatus midges = test: Field trial of repellency (WHO protocol), compounds on stockings worn on forearms of volunteers; format: in vivo, Culicoides impunctatus; conditions: for repellency compared with DEET at 1%: over 1 min, single compounds at 1%
Method: FIG. 6. Repellency of EAG-active human-derived compounds applied to the forearms of volunteers and tested on Culicoides impuctatus midges in the field. a) over 1 minute and b) over 5 minutes.
A field trial was made in the Ormsary estate, Argyllshire, during the summer 2005 in a region with an extremely high natural population of C. impunctatus. […] Compounds were applied to (nylon) stockings and worn on the forearms of volunteers and were tested at three concentrations in ethanol (1%, 0.01% and 0.0001%). All compounds and mixtures were compared against the WHO approved repellent diethyltoluamide (DEET) (1% and 40%).

[2] = hand of attractive volunteer with chemical vs without, data not shown

Row | SMILES | Mean % P.E ± S.E (Anopheles gambiae; 0.001 % Conc. in acetone) | Mean % P.E ± S.E (Anopheles gambiae; 0.01 % Conc. in acetone) | Mean % P.E ± S.E (Anopheles gambiae; 0.1 % Conc. in acetone) | Mean % P.E ± S.E (Anopheles gambiae; 1 % Conc. in acetone) | Mean % P.E ± S.E (Anopheles gambiae; 10 % Conc. in acetone) | Mean % P.E ± S.E (Culex quinquefasciatus; 0.001 % Conc. in acetone) | Mean % P.E ± S.E (Culex quinquefasciatus; 0.01 % Conc. in acetone) | Mean % P.E ± S.E (Culex quinquefasciatus; 0.1 % Conc. in acetone) | Mean % P.E ± S.E (Culex quinquefasciatus; 1 % Conc. in acetone) | Mean % P.E ± S.E (Culex quinquefasciatus; 10 % Conc. in acetone) | Mean % P.E ± S.E (Culex quinquefasciatus; 0.0001 % Conc. in acetone) | repellency compared with DEET at 1% (C. impunctatus midges) | also measured
1 | CCCCCCCCCC=O [decanal] | – | – | – | – | – | – | – | – | – | – | – | – | ranking of treatments (repellency) (Culex quinquefasciatus): most effective treatment
2 | CCCCCCCCC=O [nonanal] | – | – | – | – | – | – | – | – | – | – | – | – | flight activity compared with the untreated hand ([1]; at only one dose): significantly greater flight activity than the untreated hand
3 | CCCCCCCC=O [octanal] | – | – | – | – | – | – | – | – | – | – | – | – | repellent for Ae. aegypti (described previously) (Ae. aegypti): described previously as a repellent
4 | CCN(CC)C(=O)c1cccc(C)c1 [DEET, diethyltoluamide, reference compound] | 6.23 ± 1.7% | 20% and 20.65 ± 6.4% | 83% and 83.78 ± 3.9% | 100% and 100 ± 0% | 100% and 100 ± 0% | 7.6 ± 1.8% | 12.0 ± 1.7% | 76.9 ± 5.4% | 98.2 ± 1.1% | 100% and 100 ± 0% | – | – | –
5 | CC(=O)CCC=C(C)CCC=C(C)C [geranylacetone, 6,10-dimethyl-5,9-undecadien-2-one] | 7.25 ± 9.5% | 11.17 ± 12.9% | 30.13 ± 11% | 76.97 ± 5.9% | 100% | 10% | 23.7% | 33.2 ± 4.5% | 84.1 ± 4.2% | 100 ± 0% | 4.8% | significantly greater than DEET at 1% | Mean % P.E ± S.E (Anopheles gambiae; 10 % Conc. in acetone, listed as geranylacetonedecanal): 100 ± 0%; Mean % P.E ± S.E (Culex quinquefasciatus; 10 % Conc. in acetone, listed as Geranylacetone): 100%; probing activity (feeding) [1, 2]: significantly reduced; relative attraction [1, 2]: caused a reduction in relative attraction; repellency (C. impunctatus midges; all concentrations tested (1%, 0.01% and 0.0001% in ethanol)): effective at all concentrations tested; % repellency compared with DEET (C. impunctatus midges; full 5 min testing period, single compound at 1%): higher % repellency than DEET; these differences were not significant
6 | CC(=O)CCC=C(C)C [6-methyl-5-hepten-2-one, 6-Methyl-5-hepten-2-one] | 1.57 ± 11.2% | 19.2 ± 5.5% | 34.07 ± 6.6% | 35.73 ± 8.7% | 74.75 ± 6.1% | 12.7% | 21.8% | 30.1% | 49.7 ± 2.9% | 100.0 ± 0% | 8.0% | more effective than DEET; also recorded: significantly greater than DEET at 1% | Mean % P.E ± S.E (Anopheles gambiae; 0.0001 % Conc. in acetone): 0.85 ± 3.9%; repellency (C. impunctatus midges; 1 min time, 0.001%): significantly repellent; repellency (C. impunctatus midges; 1 min time, 0.01%): not repellent; repellency (C. impunctatus midges; 1 min time, 1%): strongly repellent; repellency (C. impunctatus midges; over 5 min): repellent only at 1%
